Measurements: article PMC3140512, “Identification of Toxoplasma gondii cAMP Dependent Protein Kinase and Its Role in the Tachyzoite Growth” (PLoS ONE, 2011)

Target: T1, TgPKA-C (T. gondii PKA catalytic subunit; ToxoDB TGGT1_081170) (Toxoplasma gondii, UniProt Q58G65)
T1 construct: gene PKA2; entire ORF (343 amino acid residues), GST fusion, wheat germ cell-free expression
Experiment: in vitro radiometric kinase assay ([γ-32P]ATP, Histone IIAS substrate) with purified GST-TgPKA-C
Assay type: biochemical

T1 sequence (Q58G65 entry or part of it): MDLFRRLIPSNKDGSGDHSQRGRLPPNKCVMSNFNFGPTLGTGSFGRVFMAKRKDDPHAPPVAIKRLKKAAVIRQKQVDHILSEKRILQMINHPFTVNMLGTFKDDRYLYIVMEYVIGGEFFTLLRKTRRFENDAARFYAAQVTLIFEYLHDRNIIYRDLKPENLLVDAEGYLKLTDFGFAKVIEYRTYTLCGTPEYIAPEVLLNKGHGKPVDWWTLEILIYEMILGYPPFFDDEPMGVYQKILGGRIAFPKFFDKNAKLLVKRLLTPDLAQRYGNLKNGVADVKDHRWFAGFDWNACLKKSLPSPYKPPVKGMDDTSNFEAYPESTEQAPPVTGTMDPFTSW

Molecule `O=S(=O)(NCCNC/C=C/c1ccc(Br)cc1)c1cccc2cnccc12` [H89, N-[2-(p-bromocinnamylamino)ethyl]-5-isoquinolinesulfonamide] has an IC50 of 175 µM.
